Measurements taken from publication PMC10525924, “Engineering and Purification of Microcin C7 Variants Resistant to Trypsin and Analysis of Their Biological Activity” (Antibiotics, 2023).
Values after ≈ are worked out from the molar mass of the structure shown. Where a SMILES comes first, the peptide text is derived from it. Where no end group is shown, it is not given here.

Experiments:
Yej^+rimL^− strain [1] = assay: organism not typed; type: cell-based; settings: agar diffusion; for Diameters of the inhibition zones, Trypsin-Untreated Group, Yej^+rimL^−: 200 μL fermentation supernatant, 1 × 10^5 CFU/mL, 4 °C 1 h then 37 °C 24 h, chloramphenicol 100 μL of 0.25 μg/mL; for Diameters of the inhibition zones, Trypsin-Untreated Group, Yej^+rimL^− / Diameters of the inhibition zones, Trypsin-Treated Group, Yej^+rimL^−: dash = no zone; for bacteriostatic activity after trypsin treatment, Yej^+rimL^− / Diameters of the inhibition zones, Trypsin-Treated Group, Yej^+rimL^−: supernatant treated with trypsin 50 μg/mL, 37 °C, 3 h; for Diameters of the inhibition zones, Trypsin-Treated Group, Yej^+rimL^−: pH 6.8, 37 °C 24 h
Description: To analyze the antimicrobial ability of the variants, we measured the inhibition zones of all 21 variants by the agar diffusion method. The peptide moiety of McC was recognized by a YejABEf-peptide transporter. The rimL contains an acetyltransferase domain homologous to MccE which can detoxify and provide resistance to McC [17]. The overexpression of the YejABEF gene cluster and rimL gene knockout made the strain hypersensitive to McC. Therefore, the Yej^+rimL^− strain was selected as the sensitive indicator bacterial strain.
(§1) The pH was adjusted to 6.8.
(§2) The fermentation supernatants and pure products were used to characterize the bacteriostatic effects of McC variants by the agar diffusion and microdilution methods. Yej^+rimL^− and E. coli K88 indicator bacteria were applied. The serotype of E. coli K88 was O149:K91, K88ac, a clinically isolated strain, and provided by the College of Veterinary Medicine, China Agricultural University. The indicated bacteria were diluted to 1 × 10^5 CFU/mL and added to plate medium cooled to 50 °C. Two hundred microliters of supernatants were added to each dish, and diffusion was performed at 4 °C for 1 h. After incubation at 37 °C for 24 h, the diameters of the inhibition zones were determined. One hundred microliters of 0.25 μg/mL chloramphenicol was used as a control. The MICs of the pure McC variants were determined by microdilution in a sterilized 96-well microplate. The McC variants were serially diluted 2 times in 96-well microplates with LB medium. The concentrations of the McC variants ranged from 0.125 to 100 µg/mL. Each well was inoculated with 10 μL of overnight bacterial culture at a concentration of 1.0 × 10^5 CFU/mL and incubated at 37 °C for 24 h. A microplate reader was used to automatically observe changes in absorbance at 600 nm in order to monitor bacterial growth. A positive control group (including inoculated medium) and a negative control group (with medium only) were included. The MIC was determined as the lowest concentration of McC variant that inhibited bacterial growth (preventing an increase in the absorbance reading). All tests were performed in triplicate.

E. coli K88 = assay: microbe, parasite or virus in culture; type: cell-based; settings: agar diffusion; for Diameters of the inhibition zones, Trypsin-Untreated Group, K88: 200 μL fermentation supernatant, 1 × 10^5 CFU/mL, 4 °C 1 h then 37 °C 24 h, chloramphenicol 100 μL of 0.25 μg/mL; for Diameters of the inhibition zones, Trypsin-Untreated Group, K88 / Diameters of the inhibition zones, Trypsin-Treated Group, K88: dash = no zone; for antimicrobial activity after trypsin treatment, K88 / Diameters of the inhibition zones, Trypsin-Treated Group, K88: supernatant treated with trypsin 50 μg/mL, 37 °C, 3 h; for Diameters of the inhibition zones, Trypsin-Treated Group, K88: pH 6.8, 37 °C 24 h
Method: as §1, §2

Yej^+rimL^− strain [2] = type: cell-based; settings: HPLC-purified variants; microdilution in LB, 96-well; 0.125 to 100 µg/mL; 1.0 × 10^5 CFU/mL; 37 °C 24 h; absorbance 600 nm; triplicate
Method: To accurately characterize the bacteriostatic abilities of the variants, the MICs of the pure McC variants toward the McCsensitive strain Yej^+rimL^− were determined. The MICs of all variants were lower than that of wild-type McC. From smallest to largest MIC, the above five variants were in the following order: R2A, R2T, R2Q, R2S, and R2H. […] Although the diameter of the inhibitory zone of R2M was smaller than those of the above five variants, the bacteriostatic ability of R2M was second only to R2T/R2Q, and the MIC was 50 μg/mL.
as §2

[3] = Remaining amount by RP-HPLC after pepsin treatment; type: in vitro ADME; settings: isolated enzyme pepsin; pepsin treated for 3 h; read-out RP-HPLC; Table S2
Method: (§3) To test whether the variants were tolerant to trypsin or other digestive enzymes, the amount of the remaining McC and its analogues remaining was determined by RP-HPLC after trypsin, pepsin, and chymotrypsin treated for 3 h (Table S2), and the inhibition zones of trypsin-treated variants were tested using the same method (Table 2).

[4] = Remaining amount by RP-HPLC after chymotrypsin treatment; type: in vitro ADME; settings: isolated enzyme chymotrypsin; chymotrypsin treated for 3 h; read-out RP-HPLC; Table S2
Method: as §3

[5] = HPLC retention time according to hydrophobicity; type: physicochemical; settings: chromatographic, C18 5 μm 9.4 × 250 mm; A 0.1% trichloroacetic acid, B 0.1% trichloroacetic acid with 90% acetonitrile; linear 5% B to 50% B; 1 mL/min; 35 °C; 280 nm; varies according to hydrophobicity
Method: To find the separation peaks of the variants, wildtype McC and blank control fermentation broth samples were tested by HPLC. The separation peaks with obvious differences (those with retention times of 11 min and 17 min) were purified and the antimicrobial activity was determined. […] Therefore, the molecular weight was further analyzed by mass spectrometry, and the separation peak at approximately 17 min was confirmed to be that of the desired purified McC. Since the mutations in this study involved only one amino acid and had few effects on the properties of the peptides, we predicted that the separation peaks of the variants should fluctuate around approximately 17 min according to their hydrophobicity. […] The purity of the purified variants was determined by HPLC to be greater than 80% (Table 3).
The lyophilized supernatants were dissolved in deionized water, filtered through 0.22 μm aqueous-phase filter membranes, and purified by high-performance liquid chromatography (HPLC, Agilent Technologies Inc., Palo Alto, CA, USA) with C18 column (5 μm 9.4 × 250 mm, Agilent Technologies Inc., Palo Alto, CA, USA). The mobile phase was composed of 0.1% (v/v) trichloroacetic acid (solvent A) and 0.1% (v/v) trichloroacetic acid with 90% (v/v) acetonitrile (solvent B). A linear gradient from 95% A/5% B to 50% A/50% B was used with a flow rate of 1 mL/min, a sample volume of 10 μL, a column temperature of 35 °C, and a detection wavelength of 280 nm. Electrospray ionization mass spectrometry (ESI-MS) was used to compare the McC variant masses with the expected masses. The relationships between the relative abundances and the mass-to-charge ratios (m/z) of the ions were determined to confirm the identities of the experimentally produced McC variants.

indicator bacteria = settings: second to seventh codons of mccA replaced; cited from earlier work
Description: The heptapeptide precursor of McC, f-MRTGNAN, is encoded by the first gene in the mcc gene clusters, mccA [11]. Considering its protein nature, it is suitable for gene-based peptide engineering. Kazakov et al. first applied site-directed mutagenesis on the mccA gene, systematically replacing the second to seventh codons of mccA encoding 19 standard amino acids for a total of 114 mutations.

Row | Molecule | Diameters of the inhibition zones, Trypsin-Untreated Group, Yej^+rimL^− (Yej^+rimL^− strain [1]) [mm] | Diameters of the inhibition zones, Trypsin-Untreated Group, K88 (E. coli K88) [mm] | MIC (Yej^+rimL^− strain [2]) [µg/mL] | remaining at 3 h [3] [%] | remaining at 3 h [4] [%] | Retention Time [5] [min] | antimicrobial activity of mccA substitution variants (indicator bacteria) | bacteriostatic activity after trypsin treatment, Yej^+rimL^− (Yej^+rimL^− strain [1]) | Diameters of the inhibition zones, Trypsin-Treated Group, Yej^+rimL^− (Yej^+rimL^− strain [1]) [mm] | antimicrobial activity after trypsin treatment, K88 (E. coli K88) | Diameters of the inhibition zones, Trypsin-Treated Group, K88 (E. coli K88) [mm]
1 | CSCC[C@H](NC=O)C(=O)N[C@@H](CCCNC(=N)N)C(=O)N[C@H](C(=O)NCC(=O)N[C@@H](CC(N)=O)C(=O)N[C@@H](C)C(=O)N[C@@H](CC(=O)O)C(=O)NP(=O)(OCCCN)OC[C@H]1O[C@@H](n2cnc3c(N)ncnc32)[C@H](O)[C@@H]1O)[C@@H](C)O (stereo partly shown) [McC, Microcin C7] (HELM PEPTIDE1{[O=C[*:2]].M.R.T.G.N.A.[NCCCOP(=O)(NC(=O)[C@H](CC(=O)O)N[*:1])OC[C@H]1O[C@@H](n2cnc3c(N)ncnc32)[C@H](O)[C@@H]1O]}$$$$V2.0) | 29.12 | 20.25 | 1.56 (≈ 1.33 µM) | 89.3 ± 1.16 | 41.7 ± 1.07 | 17.198 |  |  |  |  | 
2 | A6M: McC substitution variant of Kazakov et al., site-directed mutagenesis of mccA (MRTGNMN; ends and bridges not checked; UniProt Q47505 1-7, looked up, variant A6M) [reference compound] |  |  |  |  |  |  | loss of antimicrobial activity |  |  |  | 
3 | CSCC[C@H](NC=O)C(=O)N[C@H](C(=O)N[C@H](C(=O)NCC(=O)N[C@@H](CC(N)=O)C(=O)N[C@@H](C)C(=O)N[C@@H](CC(=O)O)C(=O)NP(=O)(OCCCN)OC[C@H]1O[C@@H](n2cnc3c(N)ncnc32)[C@H](O)[C@@H]1O)[C@@H](C)O)[C@@H](C)O (stereo partly shown) [R2T] (HELM PEPTIDE1{[O=C[*:2]].M.T.T.G.N.A.[NCCCOP(=O)(NC(=O)[C@H](CC(=O)O)N[*:1])OC[C@H]1O[C@@H](n2cnc3c(N)ncnc32)[C@H](O)[C@@H]1O]}$$$$V2.0) | 21.74 | 15.27 | 25 (≈ 22.3 µM) | 86.76 ± 0.77 | 46.7 ± 0.66 | 17.418 |  | exhibited antibacterial effects | 17.23 | retained their antimicrobial activity | 11.68
4 | CSCC[C@H](NC=O)C(=O)NCC(=O)N[C@H](C(=O)NCC(=O)N[C@@H](CC(N)=O)C(=O)N[C@@H](C)C(=O)N[C@@H](CC(=O)O)C(=O)NP(=O)(OCCCN)OC[C@H]1O[C@@H](n2cnc3c(N)ncnc32)[C@H](O)[C@@H]1O)[C@@H](C)O (stereo partly shown) [R2G] (HELM PEPTIDE1{[O=C[*:2]].M.G.T.G.N.A.[NCCCOP(=O)(NC(=O)[C@H](CC(=O)O)N[*:1])OC[C@H]1O[C@@H](n2cnc3c(N)ncnc32)[C@H](O)[C@@H]1O]}$$$$V2.0) | 18.86 |  | >100 | 85.89 ± 0.79 | 45.6 ± 1.31 | 17.253 |  | exhibited antibacterial effects | 14.15 |  | 
5 | CSCC[C@H](NC=O)C(=O)N[C@@H](CCC(N)=O)C(=O)N[C@H](C(=O)NCC(=O)N[C@@H](CC(N)=O)C(=O)N[C@@H](C)C(=O)N[C@@H](CC(=O)O)C(=O)NP(=O)(OCCCN)OC[C@H]1O[C@@H](n2cnc3c(N)ncnc32)[C@H](O)[C@@H]1O)[C@@H](C)O (stereo partly shown) [R2Q] (HELM PEPTIDE1{[O=C[*:2]].M.Q.T.G.N.A.[NCCCOP(=O)(NC(=O)[C@H](CC(=O)O)N[*:1])OC[C@H]1O[C@@H](n2cnc3c(N)ncnc32)[C@H](O)[C@@H]1O]}$$$$V2.0) | 19.45 | 21.67 | 25 (≈ 21.8 µM) | 87.6 ± 1.23 | 49.6 ± 1.19 | 16.910 |  | exhibited antibacterial effects | 19.38 | retained their antimicrobial activity | 14.56
6 | A6F: McC substitution variant of Kazakov et al., site-directed mutagenesis of mccA (MRTGNFN; ends and bridges not checked; UniProt Q47505 1-7, looked up, variant A6F) [reference compound] |  |  |  |  |  |  | loss of antimicrobial activity |  |  |  | 
7 | CC[C@H](C)[C@H](NC(=O)[C@H](CCSC)NC=O)C(=O)N[C@H](C(=O)NCC(=O)N[C@@H](CC(N)=O)C(=O)N[C@@H](C)C(=O)N[C@@H](CC(=O)O)C(=O)NP(=O)(OCCCN)OC[C@H]1O[C@@H](n2cnc3c(N)ncnc32)[C@H](O)[C@@H]1O)[C@@H](C)O (stereo partly shown) [R2I] (HELM PEPTIDE1{[O=C[*:2]].M.I.T.G.N.A.[NCCCOP(=O)(NC(=O)[C@H](CC(=O)O)N[*:1])OC[C@H]1O[C@@H](n2cnc3c(N)ncnc32)[C@H](O)[C@@H]1O]}$$$$V2.0) | 18.36 | 10.18 | 100 (≈ 88.2 µM) | 91.72 ± 0.87 | 41.3 ± 0.55 | 18.166 |  | exhibited antibacterial effects | 15.67 |  | 
